Each compound was assayed on γ-secretase (assay: Cellular γ-secretase assay (inhibition of Aβ42 secretion)). Conditions: human neuroglioma H4 cells overexpressing human APP, 22 hrs incubation.
Format: cell-based
Summary of the method: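 H4 neuroglioma cells overexpressing human APP got a ten-point compound dilution (0.4% DMSO final) for 22 h at 37 °C. Secreted Aβ42 in the supernatant was measured by electrochemiluminescence sandwich immunoassay (capture biotinylated 6E10, detection ruthenylated BAP15). IC50 came from a nonlinear regression fit.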

Row | Compound | EC50 [nM]
1 | COc1cc(Nc2nc3c(-c4ccc(F)cc4)cc(C4CC4)cn3n2)ccc1-n1cnc(C)c1 [Example 118, [6-Cyclopropyl-8-(4-fluoro-phenyl)-[1,2,4]triazolo[1,5-a]pyridin-2-yl]-[3-methoxy-4-(4-methyl-imidazol-1-yl)-phenyl]-amine] | 72
2 | Cc1cc(-c2ccc(Nc3nc4c(-c5ccc(F)cc5Cl)cccn4n3)cc2)nc(C)n1 [Example 115, 8-(2-chloro-4-fluorophenyl)-N-(4-(2,6-dimethylpyrimidin-4-yl)phenyl)-[1,2,4]triazolo[1,5-a]pyridin-2-amine] | 242
3 | CCCc1nc(C)cc2nc(Nc3ccc(-n4cnc(C)c4)c(C#N)c3)nn12 [Example 4, 2-(4-Methyl-imidazol-1-yl)-5-(7-methyl-5-propyl-[1,2,4]triazolo[1,5-c]pyrimidin-2-ylamino)-benzonitrile] | 1280
4 | COc1cc(Nc2nc3c(-c4ccc(F)cc4Cl)cccn3n2)ccc1-c1cc(C)ncn1 [Example 114, 8-(2-chloro-4-fluorophenyl)-N-(3-methoxy-4-(6-methylpyrimidin-4-yl)phenyl)-[1,2,4]triazolo[1,5-a]pyridin-2-amine] | 238
5 | COc1cc(Nc2nc3c(-c4ccc(F)c(F)c4)cc(F)cn3n2)ccc1-n1cnc(C)c1 [Example 85, 8-(3,4-Difluorophenyl)-6-fluoro-N-(3-methoxy-4-(4-methyl-1H-imidazol-1-yl)phenyl)-[1,2,4]triazolo[1,5-a]pyridin-2-amine] | 32
6 | COc1cc(Nc2nc3c(-c4ccc(N5CCOCC5)cc4)cc(C)cn3n2)ccc1-n1cnc(C)c1 [Example 82, N-(3-Methoxy-4-(4-methyl-1H-imidazol-1-yl)phenyl)-6-methyl-8-(4-morpholinophenyl)-[1,2,4]triazolo[1,5-a]pyridin-2-amine] | 242

More lines, now with the values ahead:

Row | EC50 [nM] | Compound
7 | 431 | COc1cc(Nc2nc3n(n2)C(c2ccc(F)cc2)CN(S(C)(=O)=O)C3)ccc1-n1cnc(C)c1 (stereo not drawn) [Example 57, 5-(4-Fluorophenyl)-N-(3-methoxy-4-(4-methyl-1H-imidazol-1-yl)phenyl)-7-(methylsulfonyl)-5,6,7,8-tetrahydro-[1,2,4]triazolo[1,5-a]pyrazin-2-amine]
8 | 191 | COc1cc(Nc2nc3nccc(-c4ccc(OC(F)(F)F)cc4)n3n2)ccc1-n1cnc(C)c1 [Example 23, [3-Methoxy-4-(4-methyl-imidazol-1-yl)-phenyl]-[7-(4-trifluoromethoxy-phenyl)-[1,2,4]triazolo[1,5-a]pyrimidin-2-yl]-amine acetate]
9 | 601 | COc1cc(Nc2nc3nc(C(C)C)cc(C(C)C)n3n2)ccc1-n1cnc(C)c1 [Example 25, (5,7-Diisopropyl-[1,2,4]triazolo[1,5-a]pyrimidin-2-yl)-[3-methoxy-4-(4-methyl-imidazol-1-yl)-phenyl]-amine acetate]

— patent US20110190269A1, “GAMMA SECRETASE MODULATORS” (priority 2010, published 2011)
